Measured values reported in US5801197A, “Rotamase enzyme activity inhibitors” (GPI Nil Holdings, Inc., priority 1996, dated 1998).

Experiments:
[1] = tested on: chick dorsal root ganglia; assay: Neurite outgrowth in chick dorsal root ganglion cultures; type: cell-based; conditions: for EC50: Gallus gallus, chick DRG explants, 48 h after drug treatment, read-out: ED50, Neurite Outgrowth in DRG cultures
Procedure: In the present work explants of chick dorsal root ganglia have been used, which are easier to employ in studies of nerve outgrowth.
Chick Dorsal Root Ganglion Cultures and Neurite Outgrowth
Dorsal root ganglia were dissected from chick embryos of ten day gestation. Whole ganglion explants were cultured on thin layer Matrigel-coated 12 well plates with Liebovitz L15 plus high glucose media supplemented with 2 mM glutamine and 10% fetal calf serum, and also containing 10 μM cytosine β-D arabinofuranoside (Ara C) at 37° C. in an environment containing 5% CO2. Twenty-four hours later, the DRGs were treated with various concentrations of nerve growth factor, immunophilin ligands or combinations of NFG plus drugs. Forty-eight hours after drug treatment, the ganglia were visualized under phase contrast or Hoffman Modulation contrast with a Zeiss Axiovert inverted microscope. Photomicrographs of the explants were made, and neurite outgrowth was quantitated. Neurites longer than the DRG diameter were counted as positive, with total number of neurites quantitated per each experimental condition. Three to four DRGs are cultured per well, and each treatment was performed in duplicate. Data from 6-10 different concentrations were used to generate dose-response curves, from which ED50 values were calculated.

[2] = tested on: dorsal root ganglion cells (DRGs); conditions: picomolar concentrations; sensory neurons; cited from earlier work
PC12 cells = conditions: picomolar concentrations; cited from earlier work
[3] = tested on: growth-associated protein-43 (GAP43); conditions: cited from earlier work
facial nerve injury = conditions: whole animal experiments; cited from earlier work
rat dorsal root ganglia = conditions: rat DRG explants, cited from earlier work
sciatic nerve lesions = conditions: whole animal experiments; cited from earlier work

Row | SMILES | EC50 [1] | further results
1 | COC(=O)C(=O)N1CCCC[C@H]1C(=O)OCc1ccccc1 [Example 7] | > 10000 nM | –
2 | COC(=O)C(=O)N1CCCC[C@H]1C(=O)OCCCC1CCCCC1 [Example 9] | > 10000 nM | –
3 | O=C(C(=O)N1CCCC[C@H]1C(=O)OCc1ccccc1)c1ccccc1 [Example 1] | 25 to 100 nM | –
4 | O=C(C(=O)N1CCCC[C@H]1C(=O)OC(CCCc1ccccc1)CCCc1ccccn1)c1ccccc1 (stereo partly shown) [Compound 18] | 0.063 nM | –
5 | O=C(C(=O)N1CCCC[C@H]1C(=O)OCCCCc1ccccc1)c1ccccc1 [Example 4] | 25 to 100 nM | –
6 | COc1cc(C(=O)C(=O)N2CCCC[C@H]2C(=O)OC(CCCc2ccccc2)CCCc2ccccc2)cc(OC)c1OC [Compound 21] | 0.61 nM | dose-dependence of neurotrophic effects in neuronal cultures ([1]; FIG. 3, cultured sensory neurons): dose-dependent neurotrophic effects
7 | COc1cc(C(=O)C(=O)N2CCCC[C@H]2C(=O)OCCCCc2ccccc2)cc(OC)c1OC [Example 14] | 1 to 5 nM | –
8 | COc1cc(C(=O)C(=O)N2CCCC[C@H]2C(=O)OC(CCCc2ccccc2)CCCc2ccccn2)cc(OC)c1OC (stereo partly shown) [Compound 23] | 25 nM | –
9 | COc1cc(C(=O)C(=O)N2CCCC[C@H]2C(=O)OC(CCCc2ccccc2)CCc2cccnc2)cc(OC)c1OC (stereo partly shown) [Compound 22] | 0.95 nM | neurite outgrowth in cultured sensory neurons (photomicrograph) ([1]; 1 nM): responding to trophic effects
10 | COc1cc(C(=O)C(=O)N2CCCC[C@H]2C(=O)OCCCCC2CCCCC2)cc(OC)c1OC [Example 12] | 0.031 nM | –
11 | O=C(C(=O)N1CCCC[C@H]1C(=O)OCCCCC1CCCCC1)c1ccccc1 [Example 6] | 10 to 20 nM | –
12 | COc1ccc(CCCCOC(=O)[C@@H]2CCCCN2C(=O)C(=O)c2cc(OC)c(OC)c(OC)c2)cc1 [Example 16] | 0.03 nM | –
13 | C=CC[C@@H]1/C=C(\C)C[C@H](C)C[C@H](OC)[C@H]2O[C@@](O)(C(=O)C(=O)N3CCCC[C@H]3C(=O)O[C@H](/C(C)=C/[C@@H]3CC[C@@H](O)[C@H](OC)C3)[C@H](C)[C@@H](O)CC1=O)[C@H](C)C[C@@H]2OC [FK506] | – | stimulation of neurite outgrowth [2]: stimulate neurite out growth in PC12 cells and sensory neurons; stimulation of neurite outgrowth (PC12 cells): stimulate neurite out growth in PC12 cells; phosphorylation of GAP43 [3]: augments the phosphorylation; nerve regeneration following facial nerve injury (facial nerve injury): stimulate nerve regeneration following facial nerve injury; neurotrophic effects in the absence of NGF (rat dorsal root ganglia; no NGF): neurotrophic effects were observed; lowest concentration with significant augmentation in nerve outgrowth (rat dorsal root ganglia): 1 picomolar; functional recovery in animals with sciatic nerve lesions (sciatic nerve lesions): functional recovery in animals with sciatic nerve lesions
14 | CO[C@H]1C[C@@H]2CC[C@@H](C)[C@@](O)(O2)C(=O)C(=O)N2CCCC[C@H]2C(=O)O[C@H]([C@H](C)C[C@@H]2CC[C@@H](O)[C@H](OC)C2)CC(=O)[C@H](C)/C=C(\C)[C@@H](O)[C@@H](OC)C(=O)[C@H](C)C[C@H](C)/C=C/C=C/C=C/1C [rapamycin] | – | stimulation of neurite outgrowth [2]: stimulate neurite out growth in PC12 cells and sensory neurons; stimulation of neurite outgrowth (PC12 cells): stimulate neurite out growth in PC12 cells
15 | COc1ccc(CCC(CCCc2ccccc2)OC(=O)[C@@H]2CCCCN2C(=O)C(=O)c2ccccc2)cc1 (stereo partly shown) [Compound 19] | 10 to 20 nM | –
16 | CC(C)Oc1cccc(C(=O)C(=O)N2CCCC[C@H]2C(=O)OC(CCCc2ccccc2)CCCc2cccnc2)c1 (stereo partly shown) [Compound 25] | 0.3 nM | –
17 | COc1cc(C(=O)C(=O)N2CCCC[C@H]2C(=O)OCc2cccc(Oc3ccccc3)c2)cc(OC)c1OC [Example 13] | 0.18 nM | –
18 | COc1ccc(CCCCOC(=O)[C@@H]2CCCCN2C(=O)C(=O)c2ccccc2)cc1 [Example 3] | 0.5 nM | –
19 | O=C(C(=O)N1CCCC[C@H]1C(=O)OC(CCCc1ccccc1)CCCc1cccnc1)c1ccccc1 (stereo partly shown) [Compound 17] | 1 to 5 nM | –
20 | O=C(C(=O)N1CCCC[C@H]1C(=O)OC(CCCc1ccccc1)CCCc1ccccc1)c1ccccc1 [Compound 20] | 0.0044 nM | –
21 | COC(=O)C(=O)N1CCCC[C@H]1C(=O)OCCCCC1CCCCC1 [Example 8] | > 10000 nM | –
22 | O=C(C(=O)N1CCCC[C@H]1C(=O)OCCc1ccccc1)c1ccccc1 [Example 5] | 25 to 100 nM | –
23 | COc1cc(C(=O)C(=O)N2CCCC[C@H]2C(=O)OCCCc2c[nH]c3ccccc23)cc(OC)c1OC [Example 15] | 0.055 nM | neurite outgrowth in cultured sensory neurons (photomicrograph) ([1]; 300 pM): stimulation of neurite outgrowth
24 | COC(=O)C(=O)N1CCCC[C@H]1C(=O)OCCCC1CCCC1 [Example 10] | > 10000 nM | –
25 | COc1ccc(CCCC(CCCc2ccccc2)OC(=O)[C@@H]2CCCCN2C(=O)C(=O)c2cc(OC)c(OC)c(OC)c2)cc1 (stereo partly shown) [Compound 24] | 0.5 nM | –
26 | O=C(C(=O)N1CCCC[C@H]1C(=O)OCCCc1ccccc1)c1ccccc1 [Example 2] | 10 to 20 nM | –
27 | O=C(C(=O)N1CCCC[C@H]1C(=O)OCc1ccccc1)c1ccco1 [Example 11] | 1000 nM | –
